Measurements: patent publication US20240247074A1, “THERAPEUTIC STRATEGY FOR NON-SMALL CELL LUNG CANCER AND OTHER CANCERS” (New York University, priority 2023, published 2024)

How the values were obtained:
CD38 expression [1] = experiment: FACS analysis of CD38 expression in LKB1 mutant tumors after EP300 inhibitor treatment; format: cell-based; conditions: LKB1 mutant lung cancer tumors, FIG. 6A, 6B
Source text: (§1) FIG. 6. EP300 inhibition suppresses LKB1 mutant tumor progression. (A), EP300 inhibitors CCS1477 and A485 suppresses CD38 expression in LKB1 mutant tumors. (B), Representative FACS analysis of CD38 expression after drug treatment. (C), Tumor volume changes of KL tumors after indicated EP300 inhibitors treatment. (D). Tumor growth curve of KL tumors treated with CCS1477 or A485.
(§2) Since LKB1/SIK suppresses CD38 expression through CTRC/EP300/CREB complex, we further tested inhibition of CD38 via EP300 inhibitors, including CCS1477 and A485, in LKB1 mutant lung cancer tumors.

[2] = test system: KL tumors (LKB1 mutant lung cancer tumors); experiment: KL tumor growth after EP300 inhibitor treatment; format: in vivo; conditions: FIG. 6C, 6D
Source text: as §1, §2

CD38 expression [3] = experiment: Flow cytometric analysis of CD38 expression after SIK inhibitor treatment in LKB1 WT mouse cancer cell lines; format: cell-based; conditions: LKB1 WT mouse lung cancer (KPC), colon cancer (CT26, MC38) and pancreatic cancer (KP1) lines; flow cytometry; FIG. 3
Source text: FIG. 3. SIK inhibitor increases upregulation of CD38 in LKB1 wildtype tumors. Flow cytometric analysis of CD38 expression changes after SIK inhibitor YKL-05-099 treatment in lung cancer (KPC) (A), and colon cancer (CT26, MC38) or pancreatic cancer (KP1) lines (B) at the indicated time points and concentration.
In line with the results of the LKB1 rescue studies, CRISPR-mediated knockout of Lkb1 in murine KP NSCLC cells led to increased cell surface expression of CD38 (FIG. 2A, 2B). We subsequently tested the impact of knockout of Sik1, Sik2 and Sik3, alone or in combination. We observed prominent increases in CD38 expression at the cell surface in KP cells upon inactivation of Sik1 or of all three SIK family members, but not to the level of CD38 in KP sgLkb1 cells (FIG. 2A, 2B). Without intending to be constrained by any particular theory, it is considered this indicates other factors other than SIK1/2/3 downstream of LKB1, might also contribute to the suppression of CD38 expression.

A549 xenograft tumor = A549 xenograft tumor growth in nu/nu mice; format: in vivo, mouse; conditions: LKB1 mutant A549 xenograft, 12.5 mg/kg once per week from about 100 mm^3, vs hIgG1, FIG. 5
Description: (§3) FIG. 5. Daratumumab induces killing of CD38 positive lung cancer. […] A549 (A-C) or HCC44 (D-F) xenograft tumor growth in response to daratumumab treatment. For each mouse, 3×10^6 A549 cells (A) or 5×10^5 HCC44 (D) were implanted into nu/nu mice subcutaneously. Daratumumab or hIgG1 (12.5 mg/kg, once per week) was dosed when tumor size reached 100 mm^3. Growth curve of A549 cells (A) or HCC44 (D) after daratumumab treatment. B-C, Individual mouse tumor growth curve for A549 xenografts treated with either hIgG1 (B) or Daratumumab (C) shown in panel A. (E-F), Individual mouse tumor growth curve for HCC44 xenograft treated with either hIgG1 (E) or Daratumumab (F) shown in panel D.
(§4) To study the effects of daratumumab in vivo, we implanted the LKB1 mutant A549 and HCC44 cell lines into athymic nude (nu/nu) mice to generate tumor xenografts. Daratumumab is a human IgG1, which can be recognized by mouse FcγRs on effector cells, resulting in ADCC induced between daratumumab with mouse NK cells through crosstalk, enabling evaluation of NK cell-mediated tumor cell killing in vivo. When tumors reached approximately 100 mm^3 in volume, mice were treated with daratumumab once weekly.

HCC44 xenograft tumor = HCC44 xenograft tumor growth in nu/nu mice; format: in vivo, mouse; conditions: LKB1 mutant HCC44 xenograft, 12.5 mg/kg once per week from about 100 mm^3, vs hIgG1, FIG. 5
Description: as §3, §4

Row | Compound | CD38 expression on the tumor cells (CD38 expression [1]) | tumor growth in vivo [2] | CD38 expression change (CD38 expression [3]) | tumor growth (A549 xenograft tumor) | tumor growth (HCC44 xenograft tumor)
1 | CNC(=O)Nc1ccc2c(c1)CC[C@@]21OC(=O)N(CC(=O)N(Cc2ccc(F)cc2)[C@@H](C)C(F)(F)F)C1=O [A485] | decrease of CD38 expression | reduced tumor growth | – | – | –
2 | CO[C@H]1CC[C@H](n2c([C@@H]3CCCC(=O)N3c3ccc(F)c(F)c3)nc3cc(-c4c(C)noc4C)ccc32)CC1 [CCS1477] | decrease of CD38 expression | reduced tumor growth | – | – | –
3 | COc1ccc(N2C(=O)N(c3c(C)cccc3Cl)Cc3cnc(Nc4ccc(C5CCN(C)CC5)cc4OC)nc32)nc1 [YKL-05-099] | – | – | upregulated CD38 | – | –
4 | daratumumab: first approved antibody against CD38, a fully human IgG1-κ monoclonal antibody | – | – | – | significant reduction in tumor growth | significant reduction in tumor growth
